Usually melting point stands for the temperature of the solid-liquid transition.

For 90 compounds, melting point results are on record in a melting point compilation (Tetko et al.; mined from patent text by program, amines drawn as free bases though some values may be those of a salt).

Molecules are shown by their SMILES. Where only a bound is given, the exact number is not on record here.

On to `O=c1n(CCCF)nnn1-c1ccc(Cl)cc1F`, for which the melting point was 62 to 63 °C.

In turn, `C=CCCC(C#N)(C#N)Cc1ccc(C#N)cc1` came in with a melting point of 109 °C.

`CC(C)NC(=O)c1c(NC(=O)c2cc(C(F)(F)F)nn2-c2ncccc2Cl)c(Cl)cc2cn[nH]c12` showed a melting point of 245 to 247 °C.

In turn, `Cc1nc2c(N)nc3cc(OCCNC(=O)C(C)C)ccc3c2n1CC(C)C` displayed a melting point of 205 to 206 °C.

Compound `O=C(O)Cn1c(=O)c(=O)[nH]c2ccc3ccc(-n4ccc(CN5CCN(C(c6ccccc6)c6ccccc6)CC5)c4)cc3c21` returned a melting point of more than 250 °C.

`COC(=O)C1=Cc2cc(Br)cnc2N(CC(C)C)CCC1` registered a melting point of 79.5 to 80.5 °C.

With `O=C1CCN(C(=O)C(F)(F)F)c2ccccc2CN1`, the melting point is 218 to 219 °C.

The compound `CC(C)[C@H](NC(=O)[C@@H](CSC(=O)c1ccccc1)SC(=O)c1ccccc1)C(=O)N1CCC[C@H]1C(=O)O` came in with a melting point of 85 to 93 °C.

Consider `CC(=O)c1ccc(NS(C)(=O)=O)c(NC(=O)c2ccc(F)cc2F)c1`, for which the melting point is 203 to 204 °C.

As to `CC(C)N1CCN(c2ccc(N)cc2)C(=O)C1`, the melting point lay within 156 to 159 °C.

`CCOC(=O)C(Cc1cccc(OC)c1OCc1ccccc1)(NC(C)=O)C(=O)OCC` registered a melting point of 94 to 96 °C.

As for `CC(C)OC(=O)c1cc(-n2c(=O)[nH]c(CF)c(F)c2=O)c(F)cc1Cl`, the melting point is 171 to 173 °C.

Take `COc1cc2cc(Cc3ccccc3)c(C)cc2c(C(C)C)c1OC`: the melting point fell in the range of 159 to 161 °C.

`CN1CCN(C(=O)c2ccc(N)cc2C(F)(F)F)CC1` showed a melting point of 154 to 156 °C.

`O=C1CCCc2c1c(-c1ccccc1)nn2-c1ccccc1` registered a melting point of 162 °C.

On to `O=C(O)CCc1nc2c(F)c(F)cc(F)c2s1`, for which the melting point lay within 123 to 125 °C.

Consider `CC(=O)N(N=Cc1c(Cl)cccc1Cl)c1nncn1N(C)C(C)=O`, for which the melting point fell in the range of 167 to 169 °C.

As to `C=C(CC(C)C)C(=O)O`, the melting point lay within 101 to 105 °C.

On to `Cn1cc(-c2ccccc2)c(=O)c(-c2cccc(S(C)=O)c2)c1` (stereo not given), for which the melting point was in the range of 161 to 164 °C.

For `CCCC(=O)NCCCC1c2ccccc2C=Cc2ccccc21`, the melting point lay in the range of 76 to 80 °C.

Take `Nc1ccc(CNc2ccccn2)cc1O`: the melting point is 136 to 138 °C.

`COc1ccc(/C=C(\C#N)c2ccccc2N)cc1OC1CCCC1` gave a melting point of 81 to 82.5 °C.

In the case of `COC(=O)c1c(O)ccnc1C(F)(F)F`, the melting point was 78 to 82 °C.

In turn, `C#CCOc1ccc(NCc2ccc(Cl)nc2)c(C(=O)c2ccc(C(C)C)cc2)c1` yielded a melting point of 96 °C.

Compound `O=[N+]([O-])c1ccc(C=Cc2nc(Cl)c3ccccc3n2)o1` displayed a melting point of 252 to 254 °C.

With `COc1cc(C=O)ccc1OCc1coc(-c2ccccc2)n1`, the melting point lay within 119 to 120 °C.

For the compound `CC(C)(C(=O)O)c1ccc(Br)c([N+](=O)[O-])c1`, the melting point was 167 to 171 °C.

`CC(C)(C)OC(=O)Nc1ccc(C#Cc2ccc(F)cc2)cc1N` gave a melting point of 180 °C.

For `COC(=O)c1nn(Cc2cccc(NC(=O)OC(C)(C)C)c2)c2c1CCc1cc(OCc3cncnc3)ccc1-2`, the melting point was in the range of 221 to 222 °C.

On to `CC1(C)OC(=O)Nc2ccc(-c3cccc(-c4nccs4)c3)cc21`, for which the melting point was in the range of 223 to 224 °C.

As to `COc1ccc(S(=O)(=O)C(C)(Cc2ccccc2)C(=O)NO)cc1` (stereo not given), the melting point was 58 °C.

Regarding `CCCCOC(=O)c1ccc2ccc(C(=O)O)nc2c1OC(=O)C(C)(C)C`, the melting point came out at 158 °C.

For the compound `CCOC(=O)c1ncn2c1CN=C(c1ccccc1)c1cc(I)ccc1-2`, the melting point lay within 221 to 222 °C.

`CSc1nc(=O)c2cccc3c2n1-c1cc(C(F)(F)F)ccc1S3` had a melting point of 229 to 231 °C.

For the compound `COC1(c2ccccc2)OC=C(c2ccc(CCC(=O)O)cc2)C1=O` (stereo not given), the melting point was in the range of 117 to 120 °C.

For `C[C@]1(CN2CCC(NC(=O)OCc3ccc(C(F)(F)F)cc3)CC2)Cn2cc([N+](=O)[O-])nc2O1`, the melting point was in the range of 141 to 144 °C.

In turn, `O=c1[nH]c2ccc(Cl)cc2s1` gave a melting point of 212 to 213 °C.

As to `Cc1nc(Cl)c(-c2ccc(Cl)cc2)c(NS(=O)(=O)c2ccc(Cl)cc2)n1`, the melting point was in the range of 196 to 197 °C.

For the compound `COCCNC(=O)c1ccnc(-c2ccc3c(c2)C(c2ccc(Cl)cc2Cl)CC3)c1` (stereo not given), the melting point lay in the range of 154 to 155 °C.

In the case of `CC(C)(C)OC(=O)N1CCC[C@@H]1Cc1cccc2ccc(N)cc12`, the melting point lay in the range of 157 to 158 °C.

As for `CCOC(c1ccc(Cl)c2nc3n(c12)CCCN3c1ccc(OC)nc1C)C(F)(F)F` (stereo not given), the melting point was in the range of 168 to 170 °C.

`O=[N+]([O-])c1c(Nc2ccc3[nH]ccc3c2)ncnc1-c1ccc(C(F)(F)F)cc1F` returned a melting point of 147 to 149 °C.

For `Nc1nnc(N2CCOCC2)s1`, the melting point was in the range of 186 to 188 °C.

In turn, `O=c1[nH]c2ccc(Cl)cc2n2cc(-c3ccccc3)cc12` displayed a melting point of 346 °C.

`Cc1c(C(=O)Nc2ccc(N3CCC(=O)CC3)c(C#N)c2)cnn1-c1ccc(Cl)cc1`: the melting point came to 238 °C.

As for `CCOC(=O)c1c(C(F)(F)F)nc(C(F)(F)F)c(C(=O)OCC)c1Cl`, the melting point was 76 to 77 °C.

`COc1ccc(-c2cc3ccc(C#N)cc3o2)cc1` displayed a melting point of 141 to 142 °C.

On to `CC(COc1cccc(Oc2ccccc2)c1)OS(N)(=O)=O` (stereo not given), for which the melting point lay in the range of 81 to 84 °C.

As for `CC(=O)N1CCN(C(=O)Cn2c(-c3ccc(Cl)cc3)nc3cccnc32)CC1`, the melting point is 217 to 219 °C.

Turning to `COC(=O)Cc1ccc(OCC2CN(c3ccc(C#N)cc3)C(=O)O2)cc1` (stereo not given), the melting point is 114 to 115 °C.

`NN=C1CCCCC1n1nc(-c2c(-c3ccccc3)nn3ccccc23)ccc1=O` (stereo not given) registered a melting point of 161 to 162 °C.

Compound `Cc1cc(C)n(-c2nc(Nc3ccccc3Cl)c3ccccc3n2)n1` gave a melting point of 210 to 217 °C.

Compound `CC1(C)CCC(C)(C)c2c(CO)cc(-c3ccccc3)cc21` registered a melting point of 80 to 82 °C.

Consider `Cn1c(=O)c2c(ncn2CC(N)=NO)n(C)c1=O`, for which the melting point was found to be 224 °C.

`Nc1ncc(I)c(N)n1` registered a melting point of 212 to 214 °C.

In the case of `O=C1CCN(C2c3ccccc3C=Cc3ccccc32)CC1C(c1ccccc1)c1ccccc1` (stereo not given), the melting point lay in the range of 175 to 178 °C.

`COc1cc2c(cc1OCc1ccccc1)CCN(Cc1ccccn1)C2` displayed a melting point of 73 to 74 °C.

Consider `CN(C)CCCOc1ccc2ccc(NC(=O)c3c(F)cccc3F)nc2n1`, for which the melting point came out at 190 °C.

For `COc1ccc(OC)c(C(=O)CC(CC(=O)c2ccc(Cl)cc2)c2cccc(C(=O)O)c2)c1` (stereo not given), the melting point fell in the range of 164 to 165 °C.

`Cc1ccc(Nc2ccccc2C(=O)O)c([N+](=O)[O-])c1` had a melting point of 209 to 213 °C.

For `O=c1[nH]c2cc(F)c(NCC3CCc4ccccc4C3)cc2o1` (stereo not given), the melting point lay within 177 to 178 °C.

Take `COC(=O)c1ccc(OCC(=O)c2ccc3c(c2)C(C)(C)CCS3)cc1O`: the melting point was 135 to 137 °C.

`COc1ncc([N+](=O)[O-])c(OC)n1` yielded a melting point of 92 to 93 °C.

With `CCc1ccc(/C=C/c2cc(OC)c(OC)c(OC)c2)cc1`, the melting point lay in the range of 98 to 100 °C.

The compound `CCN(CC)c1ccc2c(c1)Oc1cc(N(Cc3ccccc3)C(C)=O)c3ccccc3c1N2C(C)=O` came in with a melting point of 202 to 204 °C.

`COc1ccc(C=CC(=O)N2CCc3c([nH]c4ccccc34)C2c2ccc3c(c2)OCO3)cc1OC` (stereo not given) displayed a melting point of 233 °C.

`O=C1c2cc([N+](=O)[O-])ccc2-n2c1nc1ccccc1c2=O` came in with a melting point of 302 to 303 °C.

As to `O=C(O)/C(=C/C1CCCCC1)c1ccc(F)c(F)c1`, the melting point lay within 119 to 121 °C.

`N#CC(Cl)Cc1ccc(Cl)cc1C(=O)c1ccccc1` (stereo not given) yielded a melting point of 69 to 71 °C.

As to `Cc1ccc([N+](=O)[O-])cc1Nc1cc(Cl)ccn1`, the melting point lay in the range of 130 to 133 °C.

`C=C1C(O)C(CO)OC1n1cc(CC)c(N)nc1=O` (stereo not given): the melting point lay in the range of 194 to 196 °C.

On to `CCCCC(=O)C(Cc1ccc(C(=O)O)cc1)c1ccccc1` (stereo not given), for which the melting point worked out at 140 °C.

Consider `O=C1NCCN1C1CCN(CCC2COc3ccccc3O2)CC1` (stereo not given), for which the melting point lay in the range of 155 to 157 °C.

With `CC1(C)Oc2cc(CCc3ccccc3)cc(O)c2C2=CC(=O)CCC21` (stereo not given), the melting point was 233 to 235 °C.

As for `O=C1c2ccccc2C(=O)N1CC(=C(F)F)c1ccccc1`, the melting point lay within 102 to 103 °C.

`COC(=O)CCC(CNC(=O)C(C)(Cc1c[nH]c2ccccc12)NC(=O)OC1C2CC3CC(C2)CC1C3)c1ccccc1` (stereo not given) had a melting point of 69 to 76 °C.

Consider `O=C(O)c1ccc(C=CC=CC(=O)c2ccccc2)cc1`, for which the melting point was 210 to 214 °C.

In turn, `S=C(Nc1c(Cl)cccc1Cl)N1CCN(c2cnccn2)CC1` had a melting point of 225 to 227 °C.

`COc1ccccc1CCNC(=O)c1ccc2c(c1)C=CC(C)(C)O2` had a melting point of 125 to 130 °C.

Take `CC(C)(C)C(NC(=O)c1ccc(Cl)cc1)NC(=NC#N)Nc1cc(F)ccc1F` (stereo not given): the melting point is 196 to 198 °C.

As for `CC(C=O)C(C(=O)O)c1ccc(Cl)c(Cl)c1` (stereo not given), the melting point lay in the range of 124 to 126 °C.

In turn, `N#Cc1cc(-c2ccccc2)c(=O)n2c1-c1ccccc1CC2` showed a melting point of 204 to 205 °C.

In turn, `O=C1COc2ccc(C#Cc3ccccn3)cc2N1` returned a melting point of 210 °C.

On to `Cc1nn(C)c2nc(-c3ccncc3)nc(N)c12`, for which the melting point was 235 to 236 °C.

Regarding `CN1CCN(c2nc3c(c(N4CCOCC4)n2)SCCC3)CC1`, the melting point came to 100 °C.

Take `Cc1ccc(C2=C(c3ccc(S(C)(=O)=O)cc3)CN(C)C2=O)c(C)c1`: the melting point fell in the range of 59 to 61 °C.

In the case of `COc1ccc(-c2ccccc2C(SCC(=O)c2ccccc2)C(OC(C)=O)C(N)=O)cc1` (stereo not given), the melting point lay within 122 to 123 °C.

In turn, `Cc1c2sc3ccccc3nc-2c2ccccc2c1=O` registered a melting point of 181 °C.

Compound `CCC(C)(C)c1ccc(OCCCNC(=O)c2cc(N)c3ccccc3c2O)c(C(C)(C)CC)c1` showed a melting point of 120 to 123 °C.

For `Brc1c(OCc2nnn[nH]2)ccc2cc(-c3csc(-c4ccccc4)n3)ccc12`, the melting point fell in the range of 227 to 231 °C.
